This note sets out measurements from patent publication US10494332B2, “Protein tyrosine phosphatases or SHP2 inhibitors and uses thereof” (Indiana University Research and Technology Corporation, priority 2015, dated 2019).

Holding throughout (type): biochemical
The target in one experiment is T1, LMWPTP (Homo sapiens, UniProt P24666).
T1 sequence (P24666 1-158): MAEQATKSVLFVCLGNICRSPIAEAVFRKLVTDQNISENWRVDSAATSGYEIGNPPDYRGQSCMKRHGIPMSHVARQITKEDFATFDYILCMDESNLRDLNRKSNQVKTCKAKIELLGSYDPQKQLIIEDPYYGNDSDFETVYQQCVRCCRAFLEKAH
In words: PTP inhibition assay (pNPP). The conditions noted are these: pNPP at Km, pH 7.0, 25° C.

A further experiment concerns the target T2, Laforin (Homo sapiens, UniProt O95278).
T2 sequence (O95278 1-331): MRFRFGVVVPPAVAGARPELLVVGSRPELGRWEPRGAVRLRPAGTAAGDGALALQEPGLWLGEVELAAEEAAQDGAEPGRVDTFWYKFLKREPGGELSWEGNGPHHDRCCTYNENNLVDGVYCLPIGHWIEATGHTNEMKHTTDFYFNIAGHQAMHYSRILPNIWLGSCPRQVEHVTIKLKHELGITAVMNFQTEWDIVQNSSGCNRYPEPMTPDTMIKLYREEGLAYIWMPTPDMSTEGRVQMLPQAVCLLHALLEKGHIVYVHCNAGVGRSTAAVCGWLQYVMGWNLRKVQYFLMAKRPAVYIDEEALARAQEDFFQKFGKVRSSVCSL
In words: PTP inhibition assay (pNPP). The note with it: for IC50: pNPP at Km, pH 7.0, 25° C., read-out: IC50 Laforin.

For a further experiment, the target named is T3, PEST (Homo sapiens, UniProt Q05209).
T3 sequence (Q05209 1-780): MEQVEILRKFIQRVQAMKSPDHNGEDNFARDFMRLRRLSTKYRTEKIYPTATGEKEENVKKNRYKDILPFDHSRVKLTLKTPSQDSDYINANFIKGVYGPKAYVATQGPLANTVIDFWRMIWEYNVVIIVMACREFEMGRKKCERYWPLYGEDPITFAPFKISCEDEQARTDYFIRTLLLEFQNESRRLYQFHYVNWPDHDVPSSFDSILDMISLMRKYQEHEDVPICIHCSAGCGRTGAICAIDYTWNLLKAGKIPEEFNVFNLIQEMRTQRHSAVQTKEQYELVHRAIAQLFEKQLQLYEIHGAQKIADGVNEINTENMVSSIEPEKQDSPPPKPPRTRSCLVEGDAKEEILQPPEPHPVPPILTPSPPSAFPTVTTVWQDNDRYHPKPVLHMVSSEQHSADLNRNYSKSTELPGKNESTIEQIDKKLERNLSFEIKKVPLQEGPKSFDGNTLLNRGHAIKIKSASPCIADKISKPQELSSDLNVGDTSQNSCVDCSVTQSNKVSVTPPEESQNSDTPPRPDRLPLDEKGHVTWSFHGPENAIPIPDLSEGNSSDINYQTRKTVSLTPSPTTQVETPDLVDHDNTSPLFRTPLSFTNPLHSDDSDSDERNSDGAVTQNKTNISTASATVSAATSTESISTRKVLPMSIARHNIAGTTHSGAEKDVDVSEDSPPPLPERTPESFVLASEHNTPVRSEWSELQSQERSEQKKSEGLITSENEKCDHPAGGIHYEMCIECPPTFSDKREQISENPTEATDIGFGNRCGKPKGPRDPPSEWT
The experiment can be described thus: PTP inhibition assay (pNPP). The note with it: pNPP at Km, pH 7.0, 25° C.; read-out: IC50 PEST.

A further experiment deals with T4, SHP2 (Homo sapiens, UniProt Q06124).
T4 sequence (Q06124 224-528): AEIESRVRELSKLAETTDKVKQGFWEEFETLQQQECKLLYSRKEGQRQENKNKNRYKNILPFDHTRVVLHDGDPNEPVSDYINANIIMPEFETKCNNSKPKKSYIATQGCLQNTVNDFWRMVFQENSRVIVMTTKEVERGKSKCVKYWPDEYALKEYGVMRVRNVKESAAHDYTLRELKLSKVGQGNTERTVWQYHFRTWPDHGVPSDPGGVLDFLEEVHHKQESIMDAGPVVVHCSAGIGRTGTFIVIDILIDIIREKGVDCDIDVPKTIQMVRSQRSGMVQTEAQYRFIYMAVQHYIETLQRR
The experiment can be described thus: SHP2 phosphatase inhibition assay (pNPP). The conditions noted are these: pNPP at Km, pH 7.0, 25° C.; read-out: IC50 SHP2.

In the next experiment the target is T5, LYP (Homo sapiens, UniProt Q9Y2R2).
T5 sequence (Q9Y2R2 1-807): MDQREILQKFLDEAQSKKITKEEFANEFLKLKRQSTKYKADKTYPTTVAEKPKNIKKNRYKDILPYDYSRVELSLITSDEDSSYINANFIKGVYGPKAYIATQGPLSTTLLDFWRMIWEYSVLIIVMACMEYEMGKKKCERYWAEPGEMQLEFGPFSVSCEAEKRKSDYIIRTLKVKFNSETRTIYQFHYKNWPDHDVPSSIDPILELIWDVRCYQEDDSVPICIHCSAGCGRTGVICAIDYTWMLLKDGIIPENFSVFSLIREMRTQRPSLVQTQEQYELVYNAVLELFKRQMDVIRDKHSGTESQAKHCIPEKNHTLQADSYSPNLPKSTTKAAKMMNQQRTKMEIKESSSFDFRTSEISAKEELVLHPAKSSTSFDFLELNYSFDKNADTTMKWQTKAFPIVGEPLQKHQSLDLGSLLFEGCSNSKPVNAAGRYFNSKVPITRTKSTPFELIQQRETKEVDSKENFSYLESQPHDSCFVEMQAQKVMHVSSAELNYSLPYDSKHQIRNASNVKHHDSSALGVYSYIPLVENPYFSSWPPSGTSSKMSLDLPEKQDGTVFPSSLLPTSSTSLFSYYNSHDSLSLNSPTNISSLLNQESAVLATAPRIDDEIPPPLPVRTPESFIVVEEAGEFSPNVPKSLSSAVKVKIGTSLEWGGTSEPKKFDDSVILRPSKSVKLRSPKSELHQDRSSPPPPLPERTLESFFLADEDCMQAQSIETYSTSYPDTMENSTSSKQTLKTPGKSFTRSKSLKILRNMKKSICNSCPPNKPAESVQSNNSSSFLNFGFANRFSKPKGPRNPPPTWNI
The experiment can be described thus: PTP inhibition assay (pNPP). The note with it: pNPP at Km, pH 7.0, 25° C.

The target of a further experiment is T6, PTP1B (Homo sapiens, UniProt P18031).
T6 sequence (P18031 1-435): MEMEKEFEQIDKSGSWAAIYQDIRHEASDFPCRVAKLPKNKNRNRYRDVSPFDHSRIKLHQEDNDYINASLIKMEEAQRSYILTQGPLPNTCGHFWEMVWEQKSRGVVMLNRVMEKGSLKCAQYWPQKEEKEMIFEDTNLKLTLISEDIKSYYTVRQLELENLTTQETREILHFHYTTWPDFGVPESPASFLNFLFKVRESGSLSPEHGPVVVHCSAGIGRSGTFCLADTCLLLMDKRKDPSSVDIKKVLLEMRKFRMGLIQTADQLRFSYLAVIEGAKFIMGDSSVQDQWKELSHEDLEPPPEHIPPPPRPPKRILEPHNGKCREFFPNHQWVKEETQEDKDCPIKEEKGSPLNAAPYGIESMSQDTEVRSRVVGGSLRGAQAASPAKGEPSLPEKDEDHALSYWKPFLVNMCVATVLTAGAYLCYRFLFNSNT
In words: PTP inhibition assay (pNPP). The conditions noted are these: pNPP at Km, pH 7.0, 25° C.

A further experiment has as its target T7, CD45 (Homo sapiens, UniProt P08575).
T7 sequence (P08575 26-1306): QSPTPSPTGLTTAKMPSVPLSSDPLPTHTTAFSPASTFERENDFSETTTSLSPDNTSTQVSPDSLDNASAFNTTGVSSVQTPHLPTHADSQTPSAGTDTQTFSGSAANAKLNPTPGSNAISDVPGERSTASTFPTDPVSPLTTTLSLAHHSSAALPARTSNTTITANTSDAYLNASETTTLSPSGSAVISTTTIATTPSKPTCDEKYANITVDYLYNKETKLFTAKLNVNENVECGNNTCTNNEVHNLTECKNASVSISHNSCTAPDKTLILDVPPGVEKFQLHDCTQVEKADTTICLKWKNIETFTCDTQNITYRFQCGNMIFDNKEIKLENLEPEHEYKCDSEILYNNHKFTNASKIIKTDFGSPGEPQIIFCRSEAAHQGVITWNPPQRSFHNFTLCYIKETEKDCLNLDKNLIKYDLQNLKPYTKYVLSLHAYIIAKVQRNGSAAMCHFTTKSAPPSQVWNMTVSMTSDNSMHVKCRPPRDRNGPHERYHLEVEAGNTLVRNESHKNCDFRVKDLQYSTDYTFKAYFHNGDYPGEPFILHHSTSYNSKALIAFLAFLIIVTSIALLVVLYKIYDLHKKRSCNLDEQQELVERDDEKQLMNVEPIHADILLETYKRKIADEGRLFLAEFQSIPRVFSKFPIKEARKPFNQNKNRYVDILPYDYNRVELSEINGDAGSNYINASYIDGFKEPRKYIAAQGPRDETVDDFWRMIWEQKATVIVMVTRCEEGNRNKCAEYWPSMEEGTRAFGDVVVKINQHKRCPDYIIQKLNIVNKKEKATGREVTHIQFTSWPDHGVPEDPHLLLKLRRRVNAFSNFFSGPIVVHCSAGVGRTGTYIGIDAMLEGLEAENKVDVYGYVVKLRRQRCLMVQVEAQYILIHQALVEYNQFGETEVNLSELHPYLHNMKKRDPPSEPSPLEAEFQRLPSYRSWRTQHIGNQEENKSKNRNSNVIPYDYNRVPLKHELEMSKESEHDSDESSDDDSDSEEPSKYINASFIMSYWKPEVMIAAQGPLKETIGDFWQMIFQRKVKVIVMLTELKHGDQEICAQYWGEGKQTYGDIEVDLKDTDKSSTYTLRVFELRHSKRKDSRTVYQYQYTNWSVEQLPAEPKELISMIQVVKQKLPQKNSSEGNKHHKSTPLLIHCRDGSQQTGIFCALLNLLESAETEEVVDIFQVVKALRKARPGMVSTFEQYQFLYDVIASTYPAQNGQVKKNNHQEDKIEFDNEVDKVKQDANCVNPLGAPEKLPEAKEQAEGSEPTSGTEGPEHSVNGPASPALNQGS
In words: PTP inhibition assay (pNPP). The conditions noted are these: pNPP at Km, pH 7.0, 25° C.

Some results are limits rather than exact numbers.

As to `O=C(Nc1nnc(-c2ccccc2)s1)C(c1ccccc1)S(=O)(=O)O` (stereo not drawn) [Compound L319M73-2], the figures for the concentration for half-maximal inhibition (IC50) against LMWPTP, on Laforin and on PEST were 10.2 µM, 1.3 µM and above 200 µM, respectively. The “Fold specificity for Laforin over LMPTP” value on Laforin (ratio of IC50) was found to be 8 fold. Besides, on Laforin (ratio of IC50), the “Fold specificity for Laforin over other PTPs” value came to 100 fold.

For the molecule `Cc1ccc2nc(NC(=O)C(c3ccccc3)S(=O)(=O)O)sc2c1` (stereo not drawn) [Compound L319N15-08], the IC50 (in general, the concentration at which inhibition is half-maximal) was above 200 µM at SHP2; above 200 µM at LYP; 8.2 µM on LMWPTP; 2 µM on Laforin; above 200 µM against PTP1B; above 200 µM against CD45.

Take `O=C(Nc1nc2ccc(OC(F)(F)F)cc2s1)C(c1ccccc1)S(=O)(=O)O` (stereo not drawn) [Compound L319N15-09]: the IC50 on SHP2 is 47 µM; at LYP, 20 µM; on LMWPTP, 5.3 µM; at Laforin, 3.2 µM; at PTP1B it was 160 µM; against CD45, 80 µM.

Take `COc1ccc2nc(NC(=O)C(c3ccccc3)S(=O)(=O)O)sc2c1` (stereo not drawn) [Compound L319N15-10]: the IC50 at SHP2 was above 200 µM; on LYP it was above 200 µM; against LMWPTP, 5.8 µM; on Laforin it was 2.1 µM; against PTP1B it was above 200 µM; on CD45, above 200 µM.

For `Nc1ccc2nc(NC(=O)C(c3ccccc3)S(=O)(=O)O)sc2c1` (stereo not drawn) [Compound L319N15-12], the IC50 is 190 µM on SHP2; 166 µM against LYP; 14 µM against LMWPTP; 3.3 µM at Laforin; above 200 µM at PTP1B; 160 µM against CD45.

As for `O=C(O)c1ccc2nc(NC(=O)C(c3ccccc3)S(=O)(=O)O)sc2c1` (stereo not drawn) [Compound L319N15-13], the half-inhibitory concentration (IC50) was 83 µM at SHP2; 31 µM on LYP; 70 µM against LMWPTP; above 200 µM on Laforin; above 200 µM against PTP1B; 90 µM against CD45. The “Inhibition of Laforin at 200 μM” value on Laforin (200 μM) is listed as “did not inhibit”.

For `O=C(Nc1nc2ccccc2s1)C(c1ccc(Br)cc1)S(=O)(=O)O` (stereo not drawn) [Compound L319N15-14], the IC50 at SHP2 is above 200 µM; on LYP, above 200 µM; on LMWPTP, above 200 µM; on Laforin, 19 µM; on PTP1B, above 200 µM; against CD45, above 200 µM.

`O=C(Nc1nc2ccccc2s1)C(c1ccc([N+](=O)[O-])cc1)S(=O)(=O)O` (stereo not drawn) [Compound L319N15-16]: the concentration for half-maximal inhibition (IC50) on SHP2 is 135 µM; against LYP, 180 µM; at LMWPTP, above 200 µM; at Laforin, 66 µM; against PTP1B, above 200 µM; on CD45 it was above 200 µM.

With `O=C(Nc1nc2ccccc2s1)C(c1ccccc1F)S(=O)(=O)O` (stereo not drawn) [Compound L319N15-17], the IC50 at SHP2 is above 100 µM; on LYP it was above 100 µM; against LMWPTP it was above 100 µM; at Laforin, 14 µM; against PTP1B, above 100 µM; at CD45, above 100 µM.

Consider `O=C(Nc1nc2ccccc2s1)C(c1ccccc1Cl)S(=O)(=O)O` (stereo not drawn) [Compound L319N15-18], for which the IC50 at SHP2 was above 100 µM; at LYP it was above 100 µM; on LMWPTP, above 100 µM; on Laforin, 32 µM; against PTP1B it was above 100 µM; on CD45, above 100 µM.
